According to patent publication US9255090B2, “Heterocyclyl derivatives and their use as prostaglandin D2 receptor modulators” (Actelion Pharmaceuticals Ltd., priority 2012, dated 2016):

What was measured:
hCRTH2 receptor = hCRTH2 receptor (Homo sapiens (Human), UniProt Q9Y5Y4); experiment: hCRTH2 receptor membranes radioligand (3H-PGD2) displacement assay; assay type: binding; conditions: 3H-PGD2 radioligand displacement, HEK293-hCRTH2 membranes
How it was run: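 Compound was first mixed with buffer, then 3H-PGD2 was added at 2.5 nM, and the reaction was started with hCRTH2 membranes from HEK293 cells at 20 μg/well. After 90 min at room temperature, mixtures were filtered and washed with ice-cold buffer, and retained radioactivity was counted.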

eosinophils = experiment: Eosinophil shape change assay with human plasma; assay type: cell-based; conditions: Homo sapiens, Eosinophil, human plasma (50%), PGD2 100 nM activation, antagonistic activity
How it was run: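 Human polymorphonuclear cells stained with anti-CD49d-APC, combined with compound-preincubated human plasma (50% of final volume, 4×10^6 cells/ml) for 10 min at 37° C., then stimulated 5 min with 100 nM PGD2 and fixed. Flow cytometry scored percent eosinophils with increased forward scatter.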

Sequence of hCRTH2 receptor (Q9Y5Y4 whole entry): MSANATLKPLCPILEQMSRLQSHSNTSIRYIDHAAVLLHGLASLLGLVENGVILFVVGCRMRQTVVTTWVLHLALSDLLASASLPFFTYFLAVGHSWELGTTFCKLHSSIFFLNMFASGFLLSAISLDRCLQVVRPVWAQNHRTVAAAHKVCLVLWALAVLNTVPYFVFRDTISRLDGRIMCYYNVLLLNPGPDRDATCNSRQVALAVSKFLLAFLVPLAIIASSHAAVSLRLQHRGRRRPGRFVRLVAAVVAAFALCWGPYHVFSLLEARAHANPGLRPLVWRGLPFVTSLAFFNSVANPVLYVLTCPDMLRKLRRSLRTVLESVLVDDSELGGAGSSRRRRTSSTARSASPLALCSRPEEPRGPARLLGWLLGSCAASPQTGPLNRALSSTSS

SMILES	IC50 (hCRTH2 receptor) [nM]	IC50 (eosinophils) [nM]
CCOc1cc(CC(=O)O)ccc1-c1ccc(F)c2c1CN(C(=O)CCc1cccc(C)n1)CC2 [Example 321, (3-Ethoxy-4-{5-fluoro-2-[3-(6-methyl-pyridin-2-yl)-propionyl]-1,2,3,4-tetrahydro-isoquinolin-8-yl}-phenyl)-acetic acid]	7.3	20
CCOc1ccc(CC(=O)O)cc1-c1ccc(F)c2c1CN(C(=O)CCc1cccc(C)n1)CC2 [Example 329, (4-Ethoxy-3-{5-fluoro-2-[3-(6-methyl-pyridin-2-yl)-propionyl]-1,2,3,4-tetrahydro-isoquinolin-8-yl}-phenyl)-acetic acid]	4.2	21
CCOc1ccc(CC(=O)O)cc1-c1ccc(F)c2c1CN(C(=O)CCc1ccccn1)CC2 [Example 348, {4-Ethoxy-3-[5-fluoro-2-(3-pyridin-2-yl-propionyl)-1,2,3,4-tetrahydro-isoquinolin-8-yl]-phenyl}-acetic acid]	2.7	16
COc1cc(CC(=O)O)ccc1-c1ccc(F)c2c1CN(C(=O)CC(C)(C)c1ccc(F)cc1)CC2 [Example 358, (4-{5-Fluoro-2-[3-(4-fluoro-phenyl)-3-methyl-butyryl]-1,2,3,4-tetrahydro-isoquinolin-8-yl}-3-methoxy-phenyl)-acetic acid]	1.1	11
COc1ccc(CC(=O)O)cc1-c1ccc(F)c2c1CN(C(=O)CC(C)(C)c1ccc(F)cc1)CC2 [Example 363, (3-{5-Fluoro-2-[3-(4-fluoro-phenyl)-3-methyl-butyryl]-1,2,3,4-tetrahydro-isoquinolin-8-yl}-4-methoxy-phenyl)-acetic acid]	2.4	20
CCOc1ccc(CC(=O)O)cc1-c1ccc(F)c2c1CN(C(=O)OCc1cnccn1)CC2 [Example 365, 8-(5-Carboxymethyl-2-ethoxy-phenyl)-5-fluoro-3,4-dihydro-1H-isoquinoline-2-carboxylic acid pyrazin-2-ylmethyl ester]	3.9	32
CCOc1ccc(CC(=O)O)cc1-c1ccc(F)c2c1CN(C(=O)OCc1ncc(C)cc1F)CC2 [Example 366, 8-(5-Carboxymethyl-2-ethoxy-phenyl)-5-fluoro-3,4-dihydro-1H-isoquinoline-2-carboxylic acid 3-fluoro-5-methyl-pyridin-2-ylmethyl ester]	4.2	65
CCOc1ccc(CC(=O)O)cc1-c1ccc(F)c2c1CN(C(=O)O[C@@H](C)c1ccccc1)CC2 [Example 368, 8-(5-Carboxymethyl-2-ethoxy-phenyl)-5-fluoro-3,4-dihydro-1H-isoquinoline-2-carboxylic acid (S)-1-phenyl-ethyl ester]	5.5	46
CCOc1ccc(CC(=O)O)cc1-c1ccc(F)c2c1CN(C(=O)OCC1CCCC1)CC2 [Example 369, 8-(5-Carboxymethyl-2-ethoxy-phenyl)-5-fluoro-3,4-dihydro-1H-isoquinoline-2-carboxylic acid cyclopentylmethyl ester]	8.7	266
CCOc1ccc(CC(=O)O)cc1-c1ccc(F)c2c1CN(C(=O)OCCC(C)C)CC2 [Example 370, 8-(5-Carboxymethyl-2-ethoxy-phenyl)-5-fluoro-3,4-dihydro-1H-isoquinoline-2-carboxylic acid 3-methyl-butyl ester]	7	76
CCOc1ccc(CC(=O)O)cc1-c1ccc(F)c2c1CN(C(=O)OCc1cccc(C)n1)CC2 [Example 371, 8-(5-Carboxymethyl-2-ethoxy-phenyl)-5-fluoro-3,4-dihydro-1H-isoquinoline-2-carboxylic acid 6-methyl-pyridin-2-ylmethyl ester]	0.6	23
CCOc1ccc(CC(=O)O)cc1-c1ccc(F)c2c1CN(C(=O)OCC1CC1)CC2 [Example 372, 8-(5-Carboxymethyl-2-ethoxy-phenyl)-5-fluoro-3,4-dihydro-1H-isoquinoline-2-carboxylic acid cyclopropylmethyl ester]	5.5	149
CCOc1ccc(CC(=O)O)cc1-c1ccc(F)c2c1CN(C(=O)OCCc1ccccc1)CC2 [Example 373, 8-(5-Carboxymethyl-2-ethoxy-phenyl)-5-fluoro-3,4-dihydro-1H-isoquinoline-2-carboxylic acid phenethyl ester]	1.7	42
CCOc1ccc(CC(=O)O)cc1-c1ccc(F)c2c1CN(C(=O)OC[C@H](C)c1ccccc1)CC2 [Example 374, 8-(5-Carboxymethyl-2-ethoxy-phenyl)-5-fluoro-3,4-dihydro-1H-isoquinoline-2-carboxylic acid (R)-2-phenyl-propyl ester]	4.2	28
CCCCOC(=O)N1CCc2c(F)ccc(-c3cc(CC(=O)O)ccc3OCC)c2C1 [Example 376, 8-(5-Carboxymethyl-2-ethoxy-phenyl)-5-fluoro-3,4-dihydro-1H-isoquinoline-2-carboxylic acid butyl ester]	6.3	59
CCOc1ccc(CC(=O)O)cc1-c1ccc(F)c2c1CN(C(=O)OCC(C)C)CC2 [Example 377, 8-(5-Carboxymethyl-2-ethoxy-phenyl)-5-fluoro-3,4-dihydro-1H-isoquinoline-2-carboxylic acid isobutyl ester]	3.4	123
CCOc1cc(CC(=O)O)ccc1-c1ccc(F)c2c1CN(C(=O)O[C@@H](C)c1ccccc1)CC2 [Example 389, 8-(4-Carboxymethyl-2-ethoxy-phenyl)-5-fluoro-3,4-dihydro-1H-isoquinoline-2-carboxylic acid (S)-1-phenyl-ethyl ester]	16.7	122
CCOc1ccc(CC(=O)O)cc1-c1ccc(F)c2c1CN(C(=O)OCc1ccccn1)CC2 [Example 394, 8-(5-Carboxymethyl-2-ethoxy-phenyl)-5-fluoro-3,4-dihydro-1H-isoquinoline-2-carboxylic acid pyridin-2-ylmethyl ester]	1.2	12
CCOc1ccc(CC(=O)O)cc1-c1ccc(F)c2c1CN(C(=O)OCC1CCCCC1)CC2 [Example 396, 8-(5-Carboxymethyl-2-ethoxy-phenyl)-5-fluoro-3,4-dihydro-1H-isoquinoline-2-carboxylic acid cyclohexylmethyl ester]	2.6	18
CCOc1cc(CC(=O)O)ccc1-c1ccc(F)c2c1CN(C(=O)OCC1CCCCC1)CC2 [Example 397, 8-(4-Carboxymethyl-2-ethoxy-phenyl)-5-fluoro-3,4-dihydro-1H-isoquinoline-2-carboxylic acid cyclohexylmethyl ester]	6.8	15
CCOc1ccc(CC(=O)O)cc1-c1ccc(F)c2c1CN(C(=O)OCc1ccc(F)cc1)CC2 [Example 398, 8-(5-Carboxymethyl-2-ethoxy-phenyl)-5-fluoro-3,4-dihydro-1H-isoquinoline-2-carboxylic acid 4-fluoro-benzyl ester]	3.4	13
CCOc1ccc(CC(=O)O)cc1-c1ccc(F)c2c1CN(C(=O)OCc1cccc(F)c1)CC2 [Example 399, 8-(5-Carboxymethyl-2-ethoxy-phenyl)-5-fluoro-3,4-dihydro-1H-isoquinoline-2-carboxylic acid 3-fluoro-benzyl ester]	4.7	29
CCOc1ccc(CC(=O)O)cc1-c1ccc(F)c2c1CN(C(=O)OCc1ccccc1F)CC2 [Example 400, 8-(5-Carboxymethyl-2-ethoxy-phenyl)-5-fluoro-3,4-dihydro-1H-isoquinoline-2-carboxylic acid 2-fluoro-benzyl ester]	12.8	21
CCOc1ccc(CC(=O)O)cc1-c1ccc(F)c2c1CN(C(=O)OCc1cc(F)ccc1F)CC2 [Example 401, 8-(5-Carboxymethyl-2-ethoxy-phenyl)-5-fluoro-3,4-dihydro-1H-isoquinoline-2-carboxylic acid 2,5-difluoro-benzyl ester]	4.5	26
CCOc1ccc(CC(=O)O)cc1-c1ccc(F)c2c1CN(C(=O)OCc1cc(Cl)ccc1F)CC2 [Example 402, 8-(5-Carboxymethyl-2-ethoxy-phenyl)-5-fluoro-3,4-dihydro-1H-isoquinoline-2-carboxylic acid 5-chloro-2-fluoro-benzyl ester]	4.3	20
CCOc1ccc(CC(=O)O)cc1-c1ccc(F)c2c1CN(C(=O)OCc1ccc(F)cc1F)CC2 [Example 403, 8-(5-Carboxymethyl-2-ethoxy-phenyl)-5-fluoro-3,4-dihydro-1H-isoquinoline-2-carboxylic acid 2,4-difluoro-benzyl ester]	1.7	15
CCOc1cc(CC(=O)O)ccc1-c1ccc(F)c2c1CN(C(=O)OCc1ccc(F)cc1)CC2 [Example 404, 8-(4-Carboxymethyl-2-ethoxy-phenyl)-5-fluoro-3,4-dihydro-1H-isoquinoline-2-carboxylic acid 4-fluoro-benzyl ester]	2.3	10
CCOc1cc(CC(=O)O)ccc1-c1ccc(F)c2c1CN(C(=O)OCc1cccc(F)c1)CC2 [Example 405, 8-(4-Carboxymethyl-2-ethoxy-phenyl)-5-fluoro-3,4-dihydro-1H-isoquinoline-2-carboxylic acid 3-fluoro-benzyl ester]	2.7	20
CCOc1cc(CC(=O)O)ccc1-c1ccc(F)c2c1CN(C(=O)OCc1ccccc1F)CC2 [Example 406, 8-(4-Carboxymethyl-2-ethoxy-phenyl)-5-fluoro-3,4-dihydro-1H-isoquinoline-2-carboxylic acid 2-fluoro-benzyl ester]	7.7	10
